Results reported in patent publication US20080031968A1, “Methods for increasing cellular energy expenditure” (priority 2005, published 2008).

What was measured:
[1] = tested on: KK-Ay mice; experiment: In vivo VLDL TG production (Tyloxapol) in KK-Ay mice; set-up: species or system mouse; conditions: 1 week of CA feeding, chow and high-fat diet
[2] = tested on: KK-Ay and C57BL/6J mice; experiment: Tissue mRNA levels by quantitative RT-PCR after CA supplementation; format: in vivo, mouse
Description: (§1) Male C57BL/6J, KK-Ay, and ob/ob (C57BL/6J background) mice, 6-10 weeks of age, were obtained from Elevage Janvier (Le Genest St. Isle, France), CLEA Japan Inc. (Tokyo, Japan), and The Jackson Laboratory (Bar Harbor, Me., USA), respectively. All mice were maintained in a temperature-controlled (23° C.) facility with a 12-hour light/dark cycle and were given free access to food and water. The study protocols were approved by the institutional review boards. The body weight and food intake were measured every second day. The control and high-fat diet was obtained from UAR (Villemoisson sur Orge, France). […] The mice were fasted 4 hours before harvesting blood for subsequent lipid measurements, and tissues for RNA isolation, lipid measurements, and histology.
Total RNA was extracted from frozen tissue samples or cells using the RNeasy kit (QIAGEN, Courtaboeuf, France). cDNA was synthesized from total RNA with the SuperScript First-Strand Synthesis System (Invitrogen) and random hexamer primers. The real-time PCR measurement of individual cDNAs was performed using SYBR green dye to measure duplex DNA formation with the LightCycler System (Roche Diagnostics, Meylan, France). The sequences of the primer sets used are available online at http://www-igbmc.ustrasbg.fr/Departments/Dep_V/Dep_VA/Publi/Paper.html.

[3] = tested on: wild-type and LXRα/β-/- mice; experiment: CA diet in wild-type and LXRα/β-/- mice; format: in vivo, mouse; conditions: 0.5% CA for 3 days
Description: as §1
To determine whether LXR is essential for the TG-lowering effect of bile acids, we used LXRα/LXRβ double-knockout mice ([…]).

[4] = tested on: C57BL/6J mice; experiment: Indirect calorimetry (Oxymax); format: in vivo, mouse
Description: Male C57BL/6J and KK-Ay mice, 6-7 weeks of age, were obtained from Charles River Laboratories France (l'Arbresle, France) and CLEA Japan Inc. (Tokyo, Japan), respectively. […] All mice were maintained in a temperature-controlled (23° C.) facility with a 12 h light/dark cycle and were given free access to food and water. The control and high-fat diet was obtained from UAR (Villemoison surOrge, France). […] GW4064 was suspended in peanut oil and mixed with the high fat diet at a concentration of 180 mg per kg of food. […] The mice were fasted 4 h before harvesting blood for subsequent blood measurements, and tissues for RNA isolation, lipid measurements and histology. Oxygen consumption was measured using the Oxymax apparatus (Columbus Instruments, Columbus, Ohio).

[5] = tested on: HSMM; experiment: cAMP levels in human skeletal muscle myoblasts; format: cell-based; conditions: 1 mM IBMX, 30 minutes
Description: HSMM were obtained from Cambrex (Walkersville, Md.) and were cultured according to the suppliers instructions. […] For the cAMP measurements, cells were preincubated 12 h in Opti-MEM (Life Technologies, Cergy Pontoise, France), supplemented with 1 mM IBMX. Then medium was changed and cells were incubated for another 1 h in Opti-MEM with 1 mM IBMX, after which the medium was replaced for Opti-MEM with 1 mM IBMX and the indicated compounds. After 30 minutes the cells were lysed for cAMP analysis.
Nonesterified fatty acids, triglycerides, ketone bodies, BA and total cholesterol were determined by enzymatic assays (Roche, Mannheim, Germany). cAMP was measured using the cAMP-Screen system (Applied Biosystems, Bedford, Mass.).

[6] = KK-Ay and C57BL/6J mice, 1 and 7 days CA in chow

`C[C@H](CCC(=O)O)[C@H]1CC[C@H]2[C@@H]3[C@H](O)C[C@@H]4C[C@H](O)CC[C@]4(C)[C@H]3C[C@H](O)[C@]12C` [CA, cholic acid] was tested, and the “liver VLDL production” value [1] was “significantly decreased”, the “hepatic expression of MCAD and LCAD” value ([2]; C57BL/6J mice, 1 and 7 days CA) was “significantly decreased” and the “expression of lipogenic genes in white adipose tissue” value ([2]; CA treatment) was “none of the lipogenic genes were lowered”. For the same compound, the “hepatic expression of SHP” value ([2]; CA treatment) was “robust induction”, the “hepatic expression of AceCS, ME and SCD-1” value [2, 6] was “significantly reduced” and the “hepatic expression of LXRA, LRH-1, FXR and SREBP-2” value [2, 6] was “No major changes”. For the same compound, the “hepatic expression of CPT-I, MCAD and LCAD” value ([2]; KK-Ay mice, CA) was “no change”, the “decrease in serum TGs, SREBP-1c and ME” value ([3]; LXRα/β-/- mice) was “not observed” and the SHP expression ([3]; wild-type and LXRα/β-/- animals) was “induced significantly”. For the same compound, the “serum TG” value ([3]; wild-type animals) was “decreased serum TG”, the “CO2 production and O2 consumption” value ([4]; high fat diet containing CA vs high fat or normal diet) was “higher” and the “respiratory quotient (RQ=VCO2/VO2)” value ([4]; high fat diet supplemented with CA) was “not affected”. The cAMP levels [5] was “increased cAMP levels in a dose-dependant fashion”.
